These results are taken from patent publication US8440810B2, “Riboswitches, methods for their use, and compositions for use with riboswitches” (Yale University, priority 2002, dated 2013).

“Also recorded” adds a separate entry of the source. Read-outs that look alike come from different tables or passages of the source.

Test [1] addresses ribD RNA. The test can be described thus: In-line probing of ribD RNA (RFN element). Format: binding, B. subtilis. Conditions: read-out: apparent KD.
Protocol: To assess whether the RFN element of ribD was responsive to FMN, a fragment of the corresponding 5′-UTR was 5′-^32P labeled and incubated in the absence and presence of FMN, and the resulting fragments were analyzed by polyacrylamide gel electrophoresis (PAGE). […] To obtain values for apparent dissociation constant (apparent KD) for FMN, in-line probing assays were repeated with trace amounts of ribD RNA and increasing concentrations of FMN; the ligand concentration that correlates with half-maximal modulation of RNA structure should reflect the apparent KD.
Test [2] relates to ribD leader region. The test can be described thus: In vitro transcription of ribD leader region. Conditions: T7 or B. subtilis RNA polymerase, no additional protein factors. Format: biochemical.
Test [3] deals with 202-nucleotide leader sequence of the btuB mRNA. It is filed as binding, Escherichia coli. The note with it: half-maximal structural modulation, 25° C., 20 mM MgCl2, pH 8.3; read-out: apparent KD. On the procedure:
Precursor mRNA leader molecules were prepared by in vitro transcription from templates generated by PCR (see In vivo Expression Constructs and Assays section below) and 5′ ^32p-labeled using methods described previously (Soukup and Breaker, Allosteric nucleic acid catalysts. Curr. Opin. Struct. Biol. 10, […] (2000)). Approximately 20 nM of labeled RNA precursor was incubated as described in the brief description of FIG. 1. Accompanying digestions were carried out using reaction conditions similar to those described previously (Soukup and Breaker, Relationship between internucleotide linkage geometry and the stability of […]. RNA 5, 1308-1325 (1999)). […]
Metabolite-dependent conformational changes in the 202-nucleotide leader sequence of the btuB mRNA. […] The image was generated using a phosphorimager (Molecular Dynamics), and cleavage yields were quantitated by using ImageQuant software. […]
The btuB mRNA leader forms a saturable binding site for AdoCbl. […] 5′-^32P-labeled mRNA leader molecules were incubated, separated, and analyzed as described in the in the legend to FIG. 1A, and include identical control and marker lanes as indicated. […] Fraction cleaved values were normalized relative to the highest and lowest cleavage values measured for each location, including the values obtained upon incubation in the absence of AdoCbl. […]

The target in test [4] is btuB mRNA leader mutants m4 and m5. Format: binding, Escherichia coli. Conditions: mutants m4 and m5 (possible P4/P9 pseudoknot).
For test [5], the system named is btuB leader-lacZ fusion. The test can be described thus: btuB-lacZ expression assay. Conditions: wild-type btuB leader. Format: cell-based, E. coli.
Test [6] deals with 202-nucleotide mRNA leader (btuB). The test can be described thus: Equilibrium dialysis with btuB mRNA leader.
Test [7] deals with 251 yitJ RNA. It is filed as binding, B. subtilis.
In test [8] the target is 124 yitJ RNA. The test can be described thus: In-line probing of 124 yitJ RNA. It is filed as binding, B. subtilis. The note with it: minimized aptamer domain.
Test [9] relates to metI leader construct. It is filed as biochemical, B. subtilis.
The test system of test [10] is aptamer domain from B. subtilis cysH. Format: binding.
In test [11] the test system is yitJ, yoaD and metK leader constructs. The test can be described thus: In vitro transcription termination with T7 RNA polymerase, yitJ, yoaD and metK leaders. The note with it: 50 μM.
For test [12], the system named is 165 thiM RNA. It is filed as binding, E. coli. The note with it: for Kd: read-out: apparent KD. An excerpt: (§1) Specifically, TPP-dependent modulation of the spontaneous cleavage of RNA constructs was visualized by polyacrylamide gel electrophoresis (PAGE). […] Some RNAs were subjected to no reaction, partial digestion with alkali, or partial digestion with RNase T1 (G-specific cleavage) (see FIG. 6a). Composite plots of the fraction of RNA cleaved at specific sites versus the logarithm of the concentration of ligand (e.g. FIG. 7a) were generated to provide an estimate of the apparent KD. Fraction cleaved values were normalized relative to the highest and lowest cleavage values measured for each site.
NR, ^−OH and T1 represent RNAs subjected to no reaction, partial digestion with alkali, or partial digestion with RNase Tl (G-specific cleavage), respectively. Product bands representing cleavage after selected G residues are numbered and identified by filled arrowheads. The asterisk identifies modulation of RNA structure involving the Shine-Dalgarno (SD) sequence. Gel separations were analyzed using a phosphorimager (Molecular Dynamics) and quantitated using ImageQuant software.

In test [13] the target is 240 thiC RNA. The test can be described thus: In-line probing of 240 thiC RNA. Format: binding, E. coli. The note with it: Example 2, FIG. 7A; read-out: apparent KD. On the procedure:
Some RNAs were subjected to no reaction, partial digestion with alkali, or partial digestion with RNase T1 (G-specific cleavage) (see FIG. 6a). Composite plots of the fraction of RNA cleaved at specific sites versus the logarithm of the concentration of ligand (e.g. FIG. 7a) were generated to provide an estimate of the apparent KD. Fraction cleaved values were normalized relative to the highest and lowest cleavage values measured for each site. […] Reactions were conducted and analyzed as described in above for FIG. 6A. […] The truncated RNA 111 thiC is boxed. Nucleotides enclosed in boxes identify an alternative pairing.

The subject of test [14] is 91 thiM RNA. It is filed as binding, E. coli.
Source text: as §1
ii. The thiM and thiC mRNA Leaders Serve as High-Affinity Metabolite Receptors. […] Arrows reflect the estimated concentration of TPP needed to attain half maximal modulation of RNA (apparent KD). […] The boxed data was generated using TPP with the truncated RNAs 91 thiM and 111 thiC. […] Details for the RNA probing analysis are similar to those described above in connection with FIG. 6A. The graphs were generated by ImageQuant software.

Test [15] has as its target TPP-binding domain of A. thaliana (128-nucleotide RNA). The test can be described thus: In-line probing of Arabidopsis TPP-binding domain. The arrangement: species or system Arabidopsis thaliana. Conditions: read-out: apparent dissociation constant (KD).
For test [16], the target named is 179 lysC RNA. It is filed as binding, B. subtilis.
Test [17] has as its system lysC 5′-UTR fused to lacZ reporter gene. Format: cell-based, B. subtilis. The note with it: wild-type construct, minimal medium plus 1 mM compound.
The target of test [18] is RNA construct encompassing nucleotides 1 through 315 of the lysC 5′-UTR. Conditions: read-out: apparent KD; aptamer plus expression platform.
The target in test [19] is 179 lysC RNA. The test can be described thus: In-line probing of 179 lysC RNA. The note with it: read-out: apparent KD; half-maximal structural modulation.
Test [20] has as its system lysC 5′-UTR template. The test can be described thus: In vitro transcription termination assay, lysC 5′-UTR. Conditions: 10 mM ligand, E. coli RNA polymerase, single-round.
Test [21] has as its system 93 xpt RNA. The test can be described thus: In-line probing of 93 xpt RNA. Format: binding, B. subtilis.
Test [22] has as its system 93 xpt RNA. The test can be described thus: Equilibrium dialysis with 93 xpt RNA. Format: binding, B. subtilis.
For test [23], the system named is xpt-pbuX 5′-UTR fused to β-galactosidase reporter gene. The test can be described thus: xpt-lacZ β-galactosidase reporter expression. It is filed as cell-based, B. subtilis. Conditions: wild-type xpt construct.
Test [24] concerns 80 ydhL RNA. The test can be described thus: In-line probing of 80 ydhL RNA. It is filed as binding, B. subtilis.
Test [25] deals with purE RNA. The test can be described thus: In-line probing of purE RNA. Format: binding, B. subtilis. Conditions: 1 μM ligand.
For test [26], the system named is wild-type ydhL riboswitch fused to β-galactosidase reporter gene. The test can be described thus: ydhL-lacZ β-galactosidase reporter expression. Format: cell-based, B. subtilis.
Test [27] relates to xpt riboswitch variant with the C to U mutation at position 74, reporter construct. It is filed as cell-based, B. subtilis.
In test [28] the target is purine-binding aptamer from a pool of random-sequence RNAs. Conditions: cited from earlier work.
The target of test [29] is 201 xpt RNA. The test can be described thus: In-line probing of 201 xpt RNA. Conditions: read-out: apparent KD; limit of detection of the assay.

With `Cc1cc2nc3c(=O)[nH]c(=O)nc-3n(C[C@H](O)[C@H](O)[C@H](O)COP(=O)(O)O)c2cc1C` [FMN, flavin mononucleotide], the Kd in test [1] is ~5 nM. Also, the “transcription termination at the intrinsic terminator” value in test [2] is given as “specifically induced by FMN”.
In the case of `C/C1=C2/[N-]C([C@H](CC(N)=O)[C@@]2(C)CCC(=O)NC[C@@H](C)OP(=O)([O-])O[C@H]2[C@@H](O)[C@@H](n3cnc4cc(C)c(C)cc43)O[C@@H]2CO)[C@]2(C)N=C(/C(C)=C3N=C(/C=C4N=C1[C@@H](CCC(N)=O)C\4(C)C)[C@@H](CCC(N)=O)[C@]\3(C)CC(N)=O)[C@@H](CCC(N)=O)[C@]2(C)CC(N)=O.[CH2-][C@H]1O[C@@H](n2cnc3c(N)ncnc32)[C@@H](O)[C@@H]1O.[Co+3]` [AdoCbl, 5′-deoxy-5′-adenosylcobalamin], the figures for the Kd in test [3] and in test [4] were ~300 nM and ~5000 nM, respectively. In test [5], the “regulatory effector function on reporter gene inside cells” value is on record as “down regulation of a reporter gene”. The “restoration of equal tritium distribution by excess unlabeled compound” value in test [6] (5,000 pmoles unlabeled compound added to chamber b) is on record as “restores equal distribution of tritium”. The “cpm ratio (chamber b relative to a)” value in test [6] (3H-AdoCbl, mRNA leader in chamber b) is recorded as ~2.
As to `C[S+](CC[C@H](N)C(=O)O)C[C@H]1O[C@@H](n2cnc3c(N)ncnc32)[C@H](O)[C@@H]1O` (some centres unmarked) [SAM, S-adenosylmethionine], the Kd in test [7] is ~200 nM; in [8], ~4 nM. For the same compound, in test [9] (50 μM effector, wild-type metI), the termination product is ~75%. Moreover, in test [9] (mutant Mabc (six mutations)), the “additional yield in transcription termination” value is listed as ~20%. The “affinity poorer than that of yitJ” value in test [10] was “more than 2 orders of magnitude”. Also, in [11], the transcription termination result is recorded as “modest transcription termination”.
For `Cc1ncc(C[n+]2csc(CCO[P@](=O)(O)OP(=O)(O)O)c2C)c(N)n1` [TPP, thiamine pyrophosphate], the structure modulation entry in test [12] (40 μM each compound) was “induce modulation”. The Kd in test [12] (Example 2, FIG. 7A) was 600 nM; in test [12] (thiM RNA as reported in Example 3 (FIG. 13)) it was 500 nM; in [13], 100 nM; in [15], ~50 nM. Also, the “improvement of apparent KD compared to the longer construct (165 thiM)” value in test [14] is “approximately 20 fold”.
With `NCCCC[C@H](N)C(=O)O` [L-lysine], the Kd in test [16] (1 μM RNA, 3H-lysine 50 nM to 2.5 μM, read-out: apparent KD (Scatchard plot)) is ~1000 nM; in test [18], ~500000 nM; in test [19], ~1000 nM. Further, the “fraction of tritiated L-lysine in chamber b” value in test [16] (10 μM 179 lysC in chamber b, 50 nM 3H-lysine, 10 hr) is recorded as ~0.8. Besides, the “restoration of equal tritium distribution by unlabeled competitor” value in [16] (50 μM unlabeled compound, additional 10 hr) is on record as “symmetric distribution of tritium is restored”. Also, the “repression of β-galactosidase reporter expression” value in [17] was “exhibits ligand-dependent modulation”. In addition, the “terminated product relative to total transcription yield” value in test [20] was ~76%.
As to `Nc1nc2nc[nH]c2c(=O)[nH]1` [guanine], the “modulation of spontaneous cleavage pattern” value in test [21] (1 μM (adenine as much as 1 mM), 93 xpt and 201 xpt) is reported as “undergo significant alteration”. For the same compound, the Kd in [21] (wild-type xpt RNA, Example 8 (FIG. 39a), read-out: apparent KD) was ≤ 5 nM; in test [28], 1300 nM; in [29] it was ≤ 5 nM. The “tritiated guanine co-localized with RNA” value in [22] (100 nM 3H-guanine, 300 nM RNA) is “greater than 90%”. For the same compound, the “redistribution of 3H-guanine by excess unlabeled competitor” value in test [22] (500 nM analog) is given as “redistributes”. For the same compound, in test [22] (Example 8: 100 nM tritiated ligand, 3 μM RNA), the “shift of distribution of tritiated ligand by RNA” value is given as “able to shift the distribution of tritiated guanine”. The “repression of β-galactosidase reporter expression” value in test [23] is on record as “repressed by guanine; also recorded: causes repression of β-galactosidase expression”. Also, in test [24], the “binding / structural modulation” value was “remains unchanged”. Further, the allosteric response result in test [25] is “responds allosterically to guanine”. In addition, in test [26], the β-galactosidase activity result is “very low β-galactosidase activity”. For the same compound, in [27], the “regulation of reporter expression” value is listed as “loss of regulation upon addition of guanine”.
